From ChEMBL document CHEMBL5728357, “Small molecule inhibitors of lactate dehydrogenase and methods of use thereof” (2021)
Values joined by “and” are separate entries in the source; they are usually repeats but may differ in a detail not shown here. Equal entries are not always repeated.

Assay: Biochemical Assay: Test compounds were placed in a Greiner Bio-One (Monroe, N.C.) 1536-well black solid bottom assay plate. 200 millimolar (mM) Tris HCl, pH 7.4, 100 micromolar […] EDTA and 0.01% TWEEN-20™, final concentration, was used as the assay buffer. The LDHA reagent was 2 nanomolar (nM) Human LDHA (Meridian Life Science, Inc., Memphis, Tenn.), final concentration, in assay buffer.
Molecule `CCOC(=O)c1csc(-n2nc(-c3ccc(F)c(C#CC4CCCC4)c3)c(Cc3cccc([S+](N)(=O)[O-])c3)c2CC2CC2)n1` has an IC50 of over 57 µM.
Work on `Cc1ccc(-c2cccc(-c3nn(-c4nc(C(=O)O)cs4)c(CC4CC4)c3Cc3ccc([SH+](N)[O-])cc3F)c2)cc1` (stereo not given) yielded an IC50 of under 0.1 µM.
`NS(=O)(=O)c1ccc(Cc2c(-c3cccc(-c4ccccc4)c3)nn(-c3nc(C(=O)O)cs3)c2CCC2CC2)cc1` showed an IC50 of under 0.1 µM.
With `N[S+](=O)([O-])c1ccc(Cc2c(-c3ccc(F)c(C(F)(F)F)c3)nn(-c3nc(C(=O)O)cs3)c2CC2CC2)cc1F` the IC50 was under 0.1 µM.
Molecule `N[S+](=O)([O-])c1ccc(Cc2c(-c3ccc(F)c(-c4ccc(F)cc4)c3)nn(-c3nc(C(=O)O)cs3)c2CC2CC2)c(F)c1` has an IC50 of under 0.1 µM.
For `N[S+](=O)([O-])c1ccc(Cc2c(-c3ccc(F)c(/C=C/C4CCCC4)c3)nn(-c3nc(C(=O)O)cs3)c2CC2CC2)cc1F`, the IC50 was under 0.1 µM.
For `CCOC(=O)c1csc(-n2nc(-c3cccc(-c4ccc(C)cc4)c3)c(Cc3ccc([SH+](=O)[O-])c(F)c3)c2CC2CC2)n1`, the IC50 was “in the range around 29 µM and > 57 µM”.
Molecule `C/C=C/c1cc(-c2nn(-c3nc(C(=O)O)cs3)c(CC3CC3)c2Cc2ccc([S+](N)(=O)[O-])c(F)c2)ccc1F` has an IC50 of under 0.1 µM.
In the case of `NS(=O)(=O)c1ccc(Cc2c(CC3CC3)nn(-c3nc(OC=O)cs3)c2-c2cc(F)cc(-c3cccc(F)c3)c2)cc1`, the IC50 is reported as “in the range around 29 µM”.
`C=C(C)c1cc(-c2nn(-c3nc(C(=O)O)cs3)c(CC3CC3)c2Cc2ccc([S+](N)(=O)[O-])c(F)c2)ccc1F` gave an IC50 of under 0.1 µM.
`Cc1ccc(-c2cc(-c3nn(-c4nc(C(=O)O)cs4)c(CC4CC4)c3Cc3ccc([SH+](N)[O-])c(F)c3)ccc2F)cc1` (stereo not given) showed an IC50 of under 0.1 µM.
With `N[S+](=O)([O-])c1ccc(Cc2c(-c3ccc(F)c(/C=C/C4CC4)c3)nn(-c3nc(C(=O)O)cs3)c2CC2CC2)cc1F` the IC50 was under 0.1 µM.
Work on `COc1cccc(-c2cccc(-c3nn(-c4nc(C(=O)O)cs4)c(C4CC4)c3Cc3ccc([SH+](N)[O-])c(F)c3)c2)c1` (stereo not given) yielded an IC50 of under 0.1 µM.
With `CC#Cc1cccc(-c2nn(-c3ncc(C(=O)OCC)s3)c(CC3CC3)c2Cc2ccc([SH+](N)[O-])c(F)c2)c1` (stereo not given) the IC50 was “in the range around 29 µM”.
`CC(C)=Cc1cc(-c2nn(-c3nc(C(=O)O)cs3)c(CC3CC3)c2Cc2ccc([S+](N)(=O)[O-])c(F)c2)ccc1F` gave an IC50 of under 0.1 µM.
